{
  "source": "patent EP1222265B1",
  "about": "“NOVEL NICOTINIC ACETYLCHOLINE RECEPTOR SUBUNIT, ITS ISOLATION AND USE” (Sanofi-Aventis, priority 1999, dated 2001)",
  "key": {"homomeric α9 receptors": {"biological_target": "T1, homomeric α9 receptors (Homo sapiens, UniProt Q9UGM1)", "T1 construct": "expressed in transfected cells; host or cells: Xenopus laevis oocytes (cDNA injection)", "T1 sequence (Q9UGM1 23-479)": "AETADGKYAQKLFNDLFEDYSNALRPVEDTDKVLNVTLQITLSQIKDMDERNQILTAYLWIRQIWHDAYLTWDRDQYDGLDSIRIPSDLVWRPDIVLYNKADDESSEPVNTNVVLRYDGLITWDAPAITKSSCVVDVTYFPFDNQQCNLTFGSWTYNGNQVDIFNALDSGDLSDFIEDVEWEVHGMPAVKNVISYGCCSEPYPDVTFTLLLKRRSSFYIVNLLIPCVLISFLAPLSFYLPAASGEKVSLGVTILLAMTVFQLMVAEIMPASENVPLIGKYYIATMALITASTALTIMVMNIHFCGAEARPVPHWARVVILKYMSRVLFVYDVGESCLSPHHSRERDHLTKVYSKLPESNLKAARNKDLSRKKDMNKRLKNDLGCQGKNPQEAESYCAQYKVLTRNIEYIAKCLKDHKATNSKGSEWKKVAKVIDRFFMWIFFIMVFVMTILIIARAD", "type": "cell-based"}, "[1]": {"biological_target": "T2, Heteromeric α9-HNARA10 receptors (Homo sapiens, UniProt Q9GZZ6+Q9UGM1)", "T2 construct": "expressed in transfected cells; host or cells: Xenopus laevis oocytes (nuclear injection of cDNA)", "T2 sequence (Q9UGM1 23-479)": "as above", "T2 sequence (Q9GZZ6 25-450)": "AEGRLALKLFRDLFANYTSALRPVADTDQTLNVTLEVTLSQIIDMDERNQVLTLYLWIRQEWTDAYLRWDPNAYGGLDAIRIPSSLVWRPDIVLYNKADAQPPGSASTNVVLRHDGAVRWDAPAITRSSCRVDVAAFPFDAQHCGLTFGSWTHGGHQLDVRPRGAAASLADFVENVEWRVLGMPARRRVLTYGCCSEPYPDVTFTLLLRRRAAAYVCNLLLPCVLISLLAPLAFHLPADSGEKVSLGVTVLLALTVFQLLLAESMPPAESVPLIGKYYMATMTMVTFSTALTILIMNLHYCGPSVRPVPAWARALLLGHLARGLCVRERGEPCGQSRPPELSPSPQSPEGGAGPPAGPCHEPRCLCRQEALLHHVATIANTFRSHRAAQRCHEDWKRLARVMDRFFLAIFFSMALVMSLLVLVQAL", "test": "ACh-evoked currents in Xenopus laevis oocytes injected with human α9 and HNARA10 cDNAs", "type": "cell-based", "details": "for antagonism of ACh responses: α9+HNARA10 receptors"}, "[2]": {"biological_target": "human nicotinic acetylcholine receptor α9 subunit (homomeric α9 receptors) (human) (UniProt Q9UGM1)", "sequence (Q9UGM1 23-479)": "as the sequence (Q9UGM1 23-479) above", "test": "cell-based or functional assay"}},
  "note": "Read-outs that look alike come from different tables or passages of the source.",
  "data": [
    {"molecule": "C[N+]1(C)CCN(c2ccccc2)CC1", "note": "[DMPP]", "values": [
      {"measurement": "agonist response", "setting": "homomeric α9 receptors", "value": "did not elicit any response"},
      {"measurement": "agonist response", "setting": "[1]", "value": "did not elicit any response"}
    ]},
    {"molecule": "C[N+](C)(C)CCOC(N)=O", "note": "[carbachol]", "values": [
      {"measurement": "evoked current (partial agonist)", "setting": "[1]; oocytes expressing the mixture α9-HNARA10, from dose-response curves", "value": "about 72%"}
    ]},
    {"molecule": "COc1cc2c3cc1Oc1cc(ccc1O)C[C@@H]1c4c(cc(OC)c(O)c4Oc4ccc(cc4)C[C@@H]3N(C)CC2)CC[N+]1(C)C", "note": "[d-tubocurarine]", "values": [
      {"measurement": "antagonism of ACh responses", "setting": "homomeric α9 receptors; α9 receptors", "value": "fully antagonized"},
      {"measurement": "antagonism of ACh responses", "setting": "[1]", "value": "fully antagonized"}
    ]},
    {"molecule": "CO[C@H]1CC=C2CCN3CCC4=C(CC(=O)OC4)[C@]23C1", "note": "[dihydro-β-erythroidine]", "values": [
      {"measurement": "antagonism of ACh responses", "setting": "[1]", "value": "did not have any effect"}
    ]},
    {"molecule": "Clc1ccc(C2CC3CCC2N3)cn1", "note": "(centres unmarked) [epibatidine]", "values": [
      {"measurement": "agonist response", "setting": "homomeric α9 receptors; α9 expressing oocytes", "value": "did not elicit any response"},
      {"measurement": "agonist response", "setting": "[1]; α9+HNARA10 expressing oocytes", "value": "did not elicit any response"}
    ]},
    {"molecule": "CN1CCCC1c1cccnc1", "note": "(centres unmarked) [nicotine]", "values": [
      {"measurement": "agonist response", "setting": "homomeric α9 receptors", "value": "did not elicit any response"},
      {"measurement": "agonist response", "setting": "[1]", "value": "did not elicit any response"}
    ]},
    {"molecule": "HNARA10 polypeptide (human nicotinic acetylcholine receptor alpha 10 subunit)", "values": [
      {"measurement": "amplitude of acetylcholine-evoked currents in Xenopus oocytes, α9-HNARA10 mixture against α9 alone", "setting": "[2]", "value": 100, "unit": "fold"}
    ]}
  ]
}
